The numbers were not newly measured in patent US20040248925A1, “Use of 4-phenyl substituted tetrahydroisoquinolines in the treatment of pain, migraine and urinary incontinence” (priority 2002, published 2004), which cites them from elsewhere.

The conditions of this data set: following treatment with imipramine; background statement.

As to `CN(C)CCCN1c2ccccc2CCc2ccccc21` [imipramine, Imipramine], the “further patients in whom improvements can be seen” value is recorded as 15-20% and the “patients in whom enuresis can be cured” value is on record as “over 50%”.
